Results: the NIST ThermoML archive (doi:10.1021/je900050z)
Where “and” joins values, the source holds several entries; their conditions need not be identical. Equal entries are not always repeated.

Conditions: Liquid

CCCCCCO [hexan-1-ol]
Conditions | vapor or sublimation pressure [kPa]
343.46 K | 2.04
344.2 K | 2.16
344.6 K | 2.23
345.36 K | 2.35
346.17 K | 2.47
347.27 K | 2.67
348.1 K | 2.79
348.35 K | 2.85
349.38 K | 3.04
349.75 K | 3.11
350.75 K | 3.32
351.39 K | 3.44
352.2 K | 3.64
352.63 K | 3.73
353 K | 3.83
353.31 K | 3.89
353.82 K | 3.96
355.2 K | 4.31
357.01 K | 4.79
358.22 K | 5.15
359.43 K | 5.51
360.34 K | 5.79
361.12 K | 6.04
361.86 K | 6.29
363.85 K | 6.99
364.61 K | 7.27
365.58 K | 7.64
366.3 K | 7.92
367.44 K | 8.4
368.05 K | 8.67
368.99 K | 9.08
369.67 K | 9.4
370.24 K | 9.67
370.83 K | 9.95
371.45 K | 10.27
372.1 K | 10.59
373 K | 11.05
373.67 K | 11.43
374.19 K | 11.73
375.14 K | 12.27
375.93 K | 12.73
376.59 K | 13.15
377.22 K | 13.53
377.83 K | 13.71
378.01 K | 13.85
378.37 K | 14.15
378.72 K | 14.4
379.1 K | 14.65
379.46 K | 14.91
379.75 K | 15.12
380.06 K | 15.37
380.41 K | 15.61
380.87 K | 15.95
381.15 K | 16.15
381.45 K | 16.37
381.89 K | 16.71
382.25 K | 16.97
382.56 K | 17.21
382.85 K | 17.44
383.18 K | 17.69
383.34 K | 17.84
383.67 K | 18.09
384.08 K | 18.43
384.87 K | 19.05
385.37 K | 19.47
385.86 K | 19.91
386.31 K | 20.31
386.83 K | 20.79
387.23 K | 21.15
387.62 K | 21.48
388.1 K | 21.91
388.59 K | 22.37
389.05 K | 22.79
389.48 K | 23.2
389.89 K | 23.6
390.23 K | 23.95
390.65 K | 24.36
390.93 K | 24.67
391.4 K | 25.13
391.75 K | 25.51
392.06 K | 25.83
392.51 K | 26.31
392.77 K | 26.59
393.14 K | 27

C1CCCCC1 [cyclohexane]
Conditions | vapor or sublimation pressure
295.42 K | 11.15 kPa
295.45 K | 11.16 kPa
295.46 K | 11.17 kPa
295.72 K | 11.33 kPa
295.75 K | 11.35 kPa
296.22 K | 11.63 kPa
297.08 K | 12.15 kPa
297.13 K | 12.16 kPa and 12.17 kPa
297.86 K | 12.61 kPa
297.99 K | 12.71 kPa
298.83 K | 13.23 kPa
299.75 K | 13.8 kPa
299.77 K | 13.81 kPa
300.85 K | 14.52 kPa
302.63 K | 15.71 kPa
303.02 K | 16.03 kPa
303.15 K | 16.11 kPa
304.38 K | 17.04 kPa
304.4 K | 17.05 kPa
304.42 K | 17.07 kPa
306.05 K | 18.33 kPa
306.4 K | 18.6 kPa
307.45 K | 19.4 kPa
308.06 K | 19.91 kPa
309.5 K | 21.12 kPa
310.98 K | 22.47 kPa
312.48 K | 23.89 kPa
313.15 K | 24.56 kPa
313.84 K | 25.25 kPa
315.01 K | 26.47 kPa
315.26 K | 26.67 kPa
316.32 K | 27.88 kPa
317.51 K | 29.23 kPa
318.31 K | 30.09 kPa
318.67 K | 30.56 kPa
319.81 K | 31.93 kPa
320.87 K | 33.27 kPa
321.91 K | 34.59 kPa
321.99 K | 34.69 kPa
322.94 K | 35.95 kPa
323.15 K | 36.27 kPa
323.44 K | 36.59 kPa
323.88 K | 37.23 kPa
323.95 K | 37.33 kPa
324.83 K | 38.56 kPa
326.12 K | 40.45 kPa
326.68 K | 41.25 kPa
327.61 K | 42.68 kPa
328.43 K | 43.97 kPa
329.32 K | 45.4 kPa
329.35 K | 45.43 kPa
330.05 K | 46.59 kPa
330.94 K | 48.07 kPa
331.68 K | 49.32 kPa
332.02 K | 49.89 kPa
332.41 K | 50.6 kPa
333.11 K | 51.87 kPa
333.15 K | 51.92 kPa
333.83 K | 53.15 kPa
333.86 K | 53.19 kPa
334.53 K | 54.47 kPa
335.26 K | 55.85 kPa
335.64 K | 56.56 kPa
335.95 K | 57.19 kPa
336.7 K | 58.63 kPa
337.36 K | 59.96 kPa
338.06 K | 61.39 kPa and 61.4 kPa
338.65 K | 62.63 kPa
338.67 K | 62.64 kPa
339.29 K | 63.95 kPa
339.92 K | 65.29 kPa
340.54 K | 66.63 kPa
341.12 K | 67.95 kPa
341.72 K | 69.29 kPa
342.32 K | 70.65 kPa
342.88 K | 71.93 kPa
343.15 K | 72.6 kPa
343.43 K | 73.25 kPa
344.05 K | 74.73 kPa
344.55 K | 75.96 kPa
345.08 K | 77.27 kPa
345.69 K | 78.76 kPa
346.18 K | 80 kPa
346.67 K | 81.25 kPa
347.18 K | 82.56 kPa and 82.57 kPa
347.69 K | 83.89 kPa
348.19 K | 85.23 kPa
348.65 K | 86.49 kPa
349.19 K | 87.93 kPa
349.72 K | 89.43 kPa
350.18 K | 90.64 kPa
350.25 K | 90.87 kPa
350.67 K | 92.07 kPa
351.1 K | 93.27 kPa
351.57 K | 94.63 kPa
352.01 K | 95.92 kPa
352.45 K | 97.23 kPa
352.9 K | 98.57 kPa
353.15 K | 99.31 kPa
353.36 K | 99.95 kPa

CCC(C)O (stereo not drawn) [butan-2-ol]
Conditions | vapor or sublimation pressure [kPa]
314.47 K | 6.08
315.36 K | 6.43
316.21 K | 6.81
317.61 K | 7.45
318.57 K | 7.92
319.37 K | 8.35
319.58 K | 8.45
320.18 K | 8.77
321.05 K | 9.23
322.03 K | 9.8
322.68 K | 10.19
323.15 K | 10.48
323.41 K | 10.64
324.05 K | 11.04
324.72 K | 11.47
325.27 K | 11.84
325.92 K | 12.31
326.66 K | 12.81
327.32 K | 13.16
328.28 K | 14.03
329.05 K | 14.61
329.91 K | 15.31
330.49 K | 15.79
331.11 K | 16.31
331.58 K | 16.71
332.17 K | 17.25
332.81 K | 17.87
333.15 K | 18.2
333.28 K | 18.33
333.65 K | 18.68
334.23 K | 19.24
334.69 K | 19.71
335.19 K | 20.2
335.69 K | 20.71
336.28 K | 21.33
336.77 K | 21.85
337.23 K | 22.35
337.72 K | 22.87
338.08 K | 23.28
338.6 K | 23.87
339.07 K | 24.43
339.5 K | 24.95
339.9 K | 25.43
340.34 K | 25.97
340.95 K | 26.79
341.4 K | 27.36
341.87 K | 27.99
342.34 K | 28.63
342.89 K | 29.37
343.15 K | 29.76
343.32 K | 29.97
343.81 K | 30.67
344.25 K | 31.31
344.71 K | 31.99
345.14 K | 32.63
345.6 K | 33.33
346.02 K | 33.99
346.45 K | 34.67
346.86 K | 35.32
347.28 K | 36.01
347.65 K | 36.63
348.06 K | 37.31
348.45 K | 37.99
348.85 K | 38.64
349.21 K | 39.29
349.58 K | 39.95
350.15 K | 40.97
350.75 K | 42.05
351.25 K | 43.03
351.74 K | 43.96
352.26 K | 44.97
353.08 K | 46.6
353.15 K | 46.75
353.6 K | 47.65
354.06 K | 48.61
354.53 K | 49.61
355 K | 50.63
355.45 K | 51.63
355.81 K | 52.39
356.23 K | 53.33
356.8 K | 54.63
357.37 K | 55.96
357.99 K | 57.41
358.5 K | 58.67
359.06 K | 60.03
359.62 K | 61.41
360.13 K | 62.73
360.61 K | 63.97
361.1 K | 65.29
361.64 K | 66.71
362.1 K | 67.99
362.63 K | 69.43
363.07 K | 70.69
363.57 K | 72.12
364 K | 73.36
364.48 K | 74.72
364.9 K | 76
365.33 K | 77.31
365.76 K | 78.65
366.18 K | 79.95
366.63 K | 81.35
367.04 K | 82.63
367.47 K | 84.03
367.88 K | 85.39
368.27 K | 86.71
368.68 K | 88.05
369.08 K | 89.41
369.43 K | 90.67
369.79 K | 91.91
370.19 K | 93.33
370.56 K | 94.44
370.94 K | 96
371.32 K | 97.35
371.65 K | 98.59
